The text below walks through data of patent US9949995B2, “Compositions and methods of treating of bacterial infections with β-lactamase inhibitors” (priority 2015, dated 2018).

A value given as a limit tells only on which side of the number the result lay.

The target in one data set is IMP-1 (Serratia marcescens, UniProt P52699). The experiment in a line: IC50 assay, nitrocefin hydrolysis, IMP-1 (MBL). The data set is classed as biochemical. To be noted: nitrocefin 50 μM, 5 min pre-incubation at 25° C.; 10 mM HEPES pH 7.5, 200 mM NaCl, 50 uM Zn2SO4, 50 ug/ml BSA. As to the method:
(§1) IC50 assays were performed to determine compound ability to inhibit enzyme.

Another data set concerns the target NDM-1 (Klebsiella pneumoniae, UniProt C7C422). The experiment in a line: IC50 assay, nitrocefin hydrolysis, NDM-1 (MBL). The data set is classed as biochemical. The note with it: nitrocefin 50 μM, 5 min pre-incubation at 25° C.; 10 mM HEPES pH 7.5, 200 mM NaCl, 50 uM Zn2SO4, 50 ug/ml BSA. The procedure: as §1
The target in a further data set is VIM-2 (Escherichia coli, UniProt Q5U7L7). The experiment in a line: IC50 assay, nitrocefin hydrolysis, VIM-2 (MBL). Format: biochemical. To be noted: nitrocefin 50 μM, 5 min pre-incubation at 25° C.; 10 mM HEPES pH 7.5, 200 mM NaCl, 50 uM Zn2SO4, 50 ug/ml BSA. As to the method: as §1
In a further data set the target is VIM-24 (Escherichia coli, UniProt Q5U7L7, R205L). Kind of data set: IC50 assay, nitrocefin hydrolysis, VIM-24 (MBL). Format: biochemical. The procedure: as §1
The next data set addresses KPC-2 (Klebsiella pneumoniae, UniProt Q9F663). The experiment in a line: IC50 assay, nitrocefin hydrolysis, KPC-2 (SBL). The data set is classed as biochemical. To be noted: nitrocefin 50 μM, 5 min pre-incubation at 25° C.; 10 mM phosphate-buffered saline, pH 7.4. The procedure: as §1
In the next data set the target is ADC-7 (Acinetobacter baumannii, UniProt Q6DRA1). Kind of data set: IC50 assay, nitrocefin hydrolysis, ADC-7 (SBL). Format: biochemical. To be noted: nitrocefin 50 μM, 5 min pre-incubation at 25° C.; 10 mM phosphate-buffered saline, pH 7.4. As to the method:
as §1

A further data set deals with PDC-3 (Pseudomonas aeruginosa, UniProt P24735, T105A). Kind of data set: IC50 assay, nitrocefin hydrolysis, PDC-3 (SBL). The data set is classed as biochemical. The procedure:
as §1

The target of another data set is OXA-23 (Acinetobacter baumannii, UniProt Q9L4P2). The experiment in a line: IC50 assay, nitrocefin hydrolysis, OXA-23 (SBL). The note with it: nitrocefin 50 μM, 5 min pre-incubation at 25° C.; 50 mM Na Phosphate buffer, pH 7.2, 20 mM Na bicarbonate. The data set is classed as biochemical. The procedure: as §1
OXA-23, sequence (Q9L4P2 18-273): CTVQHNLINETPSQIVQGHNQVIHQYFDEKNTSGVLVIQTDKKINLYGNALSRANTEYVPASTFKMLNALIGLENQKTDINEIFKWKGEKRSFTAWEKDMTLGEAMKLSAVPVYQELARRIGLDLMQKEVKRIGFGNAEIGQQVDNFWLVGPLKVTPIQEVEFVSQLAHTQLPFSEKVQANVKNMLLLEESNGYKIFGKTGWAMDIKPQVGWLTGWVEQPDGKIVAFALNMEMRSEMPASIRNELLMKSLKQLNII

The melting point is the temperature, or range, at which the solid turns liquid. For orientation: IC50 means the point on the concentration scale where inhibition reaches its midpoint. Low values mean greater potency in that assay, high ones weaker potency in that assay.

KPC-2, sequence (Q9F663 25-293, looked up): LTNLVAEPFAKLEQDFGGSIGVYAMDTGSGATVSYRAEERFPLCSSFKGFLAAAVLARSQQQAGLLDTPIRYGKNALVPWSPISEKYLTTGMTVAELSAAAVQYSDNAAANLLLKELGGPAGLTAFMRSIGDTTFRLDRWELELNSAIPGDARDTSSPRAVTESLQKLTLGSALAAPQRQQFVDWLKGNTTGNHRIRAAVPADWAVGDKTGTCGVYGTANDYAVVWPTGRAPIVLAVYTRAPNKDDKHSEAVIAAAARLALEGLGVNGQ
NDM-1, sequence (C7C422 29-270, looked up): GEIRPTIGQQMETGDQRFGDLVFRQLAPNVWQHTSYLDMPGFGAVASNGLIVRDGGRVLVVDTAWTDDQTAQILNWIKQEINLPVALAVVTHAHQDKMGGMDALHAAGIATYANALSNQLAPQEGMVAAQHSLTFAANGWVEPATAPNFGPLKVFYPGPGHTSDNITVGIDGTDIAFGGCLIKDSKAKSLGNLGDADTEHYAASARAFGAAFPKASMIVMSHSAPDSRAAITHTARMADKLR
IMP-1, sequence (P52699 19-246, looked up): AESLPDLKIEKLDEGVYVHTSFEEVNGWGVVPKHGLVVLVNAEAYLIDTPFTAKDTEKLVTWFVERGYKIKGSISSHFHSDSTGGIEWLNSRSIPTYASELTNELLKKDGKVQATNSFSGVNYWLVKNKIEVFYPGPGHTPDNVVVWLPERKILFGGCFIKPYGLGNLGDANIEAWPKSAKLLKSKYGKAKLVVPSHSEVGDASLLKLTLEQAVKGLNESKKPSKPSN
PDC-3, sequence (P24735 27-397 T105A): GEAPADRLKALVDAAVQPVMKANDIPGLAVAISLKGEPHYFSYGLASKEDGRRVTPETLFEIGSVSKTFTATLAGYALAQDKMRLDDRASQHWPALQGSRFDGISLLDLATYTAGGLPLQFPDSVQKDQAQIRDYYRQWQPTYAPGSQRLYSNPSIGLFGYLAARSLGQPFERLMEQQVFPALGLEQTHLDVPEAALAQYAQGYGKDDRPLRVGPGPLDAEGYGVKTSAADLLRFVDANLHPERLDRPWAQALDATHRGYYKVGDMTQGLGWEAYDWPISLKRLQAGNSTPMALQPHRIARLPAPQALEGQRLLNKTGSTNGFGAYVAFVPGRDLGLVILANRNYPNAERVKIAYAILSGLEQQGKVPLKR

As for `O=C(O)c1cn([C@@H](Cc2ccccc2)B(O)O)nn1`, the melting point is 120 to 122 °C (dec.).
Turning to `OB(O)[C@H](Cc1ccccc1)n1cc(-c2ccccc2)nn1`, the melting point was 151 to 153 °C (dec.).
`OB(O)[C@H](Cc1ccccc1)n1cc(-c2ccsc2)nn1`: the melting point was 141 to 143 °C (dec.).
With `OB(O)[C@H](Cc1ccccc1)n1cc(COc2ccccc2)nn1`, the melting point is 113 to 115 °C (dec.).
Same read-out and setting: to `CCOC(=O)c1cn([C@@H](Cc2cccc(C(=O)O)c2)B(O)O)nn1` belongs 108 to 110 °C (dec.); to `O=C(O)c1cccc(C[C@@H](B(O)O)n2cc(-c3ccccc3)nn2)c1`, 88 to 90 °C (dec.).
`O=C(O)c1cccc(C[C@@H](B(O)O)n2cc(-c3ccsc3)nn2)c1`: the melting point was 185 to 187 °C (dec.).
As for `CCOC(=O)c1cn(CB(O)O)nn1`, the melting point was 123 to 125 °C (dec.).
`OB(O)Cn1cc(-c2ccccc2)nn1`: the melting point is 122 to 124 °C (dec.).
Consider `OB(O)Cn1cc(-c2ccsc2)nn1`, for which the melting point was 170 to 172 °C (dec.).
For `OB(O)Cn1cc(COc2ccccc2)nn1`, the melting point was 128 to 131 °C (dec.).
As for `Cc1ccc(S(=O)(=O)NCc2cn(CB(O)O)nn2)cc1` [Cmp 1a], the IC50 at IMP-1 is over 100 µM; against NDM-1, over 100 µM; against VIM-2, over 100 µM; at VIM-24 it was over 100 µM; on KPC-2 it was 1.3 ± 0.1 µM; against ADC-7, 24 ± 3 µM. Besides, the half-inhibitory concentration (IC50) against PDC-3 was 9 ± 1 µM; at OXA-23, over 100 µM.
As for `O=C(NCc1cn(CB(O)O)nn1)c1ccccc1` [Cmp 1c], the IC50 is over 100 µM at IMP-1; over 100 µM on NDM-1; 55 ± 5 µM on VIM-2; over 100 µM against VIM-24; 10.8 ± 1.5 µM against KPC-2; 23 ± 3 µM at ADC-7. Besides, the IC50 against PDC-3 was 26 ± 3 µM; against OXA-23, over 100 µM.
On to `O=C(Cc1ccccc1)NCc1cn(CB(O)O)nn1` [Cmp 1d], for which the IC50 at IMP-1 was over 100 µM; against NDM-1 it was over 100 µM; at VIM-2, 92 ± 9 µM; against VIM-24, over 100 µM; against KPC-2 it was 12 ± 1 µM; against ADC-7 it was 39 ± 4 µM. The IC50 on PDC-3 is 23 ± 3 µM; on OXA-23, over 100 µM.
As to `O=C(NCc1cn(CB(O)O)nn1)Nc1ccccc1` [Cmp 1e], the IC50 at IMP-1 was over 100 µM; at NDM-1 it was over 100 µM; against VIM-2 it was 39 ± 4 µM; against VIM-24, over 100 µM; against KPC-2 it was 5.2 ± 0.2 µM; on ADC-7, 14 ± 2 µM. In addition, the IC50 was 10 ± 1 µM against PDC-3 and over 100 µM against OXA-23.
